The values that follow come from patent US20220175955A1, “PEPTIDE DISPLAY TO ANTIGEN PRESENTING CELLS USING LIPID VEHICLE” (Torque Therapeutics Inc., priority 2018, published 2022).

The test system of the experiment is CD11c+ BMDCs. The experiment can be described thus: Antigen presentation (MHC I:SIINFEKL) on antigen-pulsed BMDCs in vitro, flow cytometry. Format: cell-based, mouse. Conditions: 1 μM epitope; later time points (48 h to 96 h); FIG. 1. The method, then:
Bone marrow derived dendritic cells (BMDCs) were differentiated in vitro before antigen pulsing. Bone marrow cells were isolated from tibia and femur from C57bl/6 JrJ mice obtained from Janvier SAS. After sacrificing the mice by cervical dislocation, bones were isolated and kept in tissue storage solution (MACS Miltenyi). After a 2 min sterilization in 70% ethanol, bones were cut at each end with a scalpel end flushed with medium by using a 29 g insulin syringe. Following isolation, bone marrow cells were cultured in complete RPMI 1640 medium supplemented with 20 ng/ml mouse recombinant GM-CSF. On day 3, cells were supplemented with fresh medium containing GM-CSF. On day 6, immature BMDCs were harvested, re-plated and incubated with 1 μM liposomal (MK062 or MK062 TMX) or soluble SIINFEKL epitope. BMDCs were harvested after 24 or 48 hours for flow cytometry analysis. […] After blocking for 5 min on ice, cells were stained with antibodies against the dendritic cell marker CD11c and assessed for antigen presentation by an antibody recognizing SIINFEKL presented on MHC I molecules (H-2kb). […]
[…] After blocking for 5 min on ice, cells were stained with antibodies against the dendritic cell marker CD11c and assessed for antigen presentation by an antibody recognizing SIINFEKL presented on MHC I molecules (H-2kb). […]

In the case of SIINFEKL (Synthetic antigen), the “Antigen presentation (MFI of MHC:SIINFEKL in CD11c+ BMDCs)” value is given as “decreased markedly”.
